Key:
[1] = target: IRAK4 kinase (Homo sapiens (Human), UniProt Q9NWZ3); assay: IRAK4 kinase activity assay (mobility shift, Km ATP); assay type: biochemical; settings: Km ATP (15.6 μM ATP), 1 nM IRAK4, 60 min room temperature
Protocol: Inhibitory activity (IC50) of the compounds against IRAK4 kinase under Km ATP was detected through mobility spectrum analysis (MSA). IRAK4 kinase was purchased from Carna (Cat. No.: 09-145, batch No.: 14CBS-0020H), and Kinase Substrate 8 was purchased from GL Biochem (Cat. No.: 112396, batch No.: P171207-MJI112396).
The compounds were prepared with DMSO to 100 times the final reaction concentration and diluted to 10 concentrations in sequence at a 3-fold dilution ratio starting from 1 μM. Then 0.25 μL was transferred to a 384-well plate using Echo550. A 1× kinase buffer (50 mM HEPES, pH=7.5, 0.0015% Brij-35, 10 mM MgCl2, 2 mM DTT) was used to prepare a kinase solution of 2.5 times the final concentration. Then 10 μL of the kinase solution of 2.5 times the final concentration was added to each compound well, shaken and mixed uniformly, and incubated at room temperature for 10 min. A 1× kinase buffer was used to prepare a mixed solution of ATP and substrate Kinase Substrate 8 with a concentration of 25/15 times the final concentration. 15 μL of the mixed solution of ATP and the substrate with a concentration of 25/15 times the final concentration were added to each well (the final concentration of IRAK4 kinase was 1 nM, the final concentration of the substrate was 3 μM, and the final concentration of ATP was 15.6 μM), shaken and mixed uniformly, and reacted at room temperature for 60 min. Finally, 30 μL of stopping solution (100 mM HEPES, pH=7.5, 0.0015% Brij-35, 0.2% Coating Reagent #3, 50 mM EDTA) was added to terminate the reaction. CaliperEZ Reader II was used to read data about conversion rates that was then converted into data about inhibition rates. According to the data about the inhibition rate at each concentration, the half maximal inhibitory concentration (IC50) (Table 1) was calculated by a Logit method.

[2] = system: TNFα secretion in THP-1 cells; assay: Cellular activity assay: LPS-stimulated TNFα secretion in THP-1 cells (ELISA); assay type: cell-based; settings: Homo sapiens, LPS 1 μg/mL, 4.5 h, read-out: IC50 inhibiting TNFα secretion in THP-1 cells stimulated by LPS
Protocol: Inhibition of IRAK4 by the compounds of the present application was evaluated in THP-1 cells for cellular activity. The stimulus used in this experiment was LPS. LPS is a TLR4 agonist that stimulates the secretion of TNFα through TLR-IRAK4 signaling pathway in the THP-1 cells. Once the signaling pathway is inhibited by IRAK4 inhibitors, the production of TNFα is inhibited. In this experiment, the secretion of TNFα was detected by ELISA.
150 μL of RPMI-1640 medium (Gibco, catalog No.: 11875-085) solution containing 10000 THP-1 cells were added to each well of a 96-well plate and then 25 μL of a test compound solution of 8 times the final concentration (starting from […], 3-fold dilution, 8 concentrations, each concentration containing 4% DMSO RPMI-1640 medium) were added, and they were mixed uniformly and incubated at 37° C. for 30 min. 25 μL of RPMI-1640 medium solution containing LPS were added to each well (the final LPS concentration was 1 μg/mL and the final DMSO concentration was 0.5%), mixed uniformaly, and incubated at 37° C. for 4.5 h. The 96-well plate was rotated at 2000 rpm for 5 min, then 50 μL of supernatant was taken, and the TNFα content in the supernatant was determined with a human ELISA kit (Life Technologies, catalog No.: KHC3011). The IC50 (Table 2) of the compound was calculated by XL-Fit.

Sequence of IRAK4 kinase (Q9NWZ3 whole entry): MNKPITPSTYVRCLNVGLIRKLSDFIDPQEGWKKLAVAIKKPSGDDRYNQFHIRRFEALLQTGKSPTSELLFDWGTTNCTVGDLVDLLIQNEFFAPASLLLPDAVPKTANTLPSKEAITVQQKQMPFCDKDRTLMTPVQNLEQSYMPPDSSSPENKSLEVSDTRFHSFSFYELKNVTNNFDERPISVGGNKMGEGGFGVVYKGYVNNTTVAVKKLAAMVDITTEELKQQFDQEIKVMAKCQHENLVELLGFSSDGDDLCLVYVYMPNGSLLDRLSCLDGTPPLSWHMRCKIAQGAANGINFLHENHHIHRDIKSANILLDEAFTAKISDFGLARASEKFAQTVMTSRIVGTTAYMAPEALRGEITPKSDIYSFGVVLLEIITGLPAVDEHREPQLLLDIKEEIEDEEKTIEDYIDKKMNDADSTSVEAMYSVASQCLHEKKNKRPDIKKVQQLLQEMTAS

Row | SMILES | IC50 [1] | IC50 [2]
1 | CC(=O)N1CCC(N2CC(n3cc(NC(=O)c4cccc(-c5cnn(CC(F)(F)F)c5)n4)c(C(F)F)n3)C2)CC1 [Example 3, N-(1-(1-(1-acetylpiperidin-4-yl)azetidin-3-yl)-3-(difluoromethyl)-1H-pyrazol-4-yl)-6-(1-(2,2,2-trifluoroethyl)-1H-pyrazol-4-yl)-2-picolinamide] | 0.87 nM | 35 nM
2 | CC(C)(C#N)n1cc(-c2cccc(C(=O)Nc3cn(C4CN(C5CCN(C(=O)CO)CC5)C4)nc3C(F)F)n2)cn1 [Example 43, 6-(1-(2-Cyanopropan-2-yl)-1H-pyrazol-4-yl)-N-(3-(difluoromethyl)-1-(1-(1-(2-hydroxyacetyl)piperidin-4-yl)azetidin-3-yl)-1H-pyrazol-4-yl)-2-picolinamide] | 0.97 nM | 42 nM
3 | O=C(Nc1cn(C2CN(C3CCN(C(=O)CO)CC3)C2)nc1C(F)F)c1cccc(-c2cc[nH]n2)n1 [Example 27, N-(3-(difluoromethyl)-1-(1-(1-(2-hydroxyacetyl)piperidin-4-yl)azetidin-3-yl)-1H-pyrazol-4-yl)-6-(1H-pyrazol-3-yl)-2-picolinamide] | 0.51 nM | 18 nM
4 | C[C@@H](O)C(=O)N1CCC(N2CC(n3cc(NC(=O)c4cccc(-c5cnn(CC(F)F)c5)n4)c(C(F)F)n3)C2)CC1 [Example 35, (R)-6-(1-(2,2-difluoroethyl)-1H-pyrazol-4-yl)-N-(3-(difluoromethyl)-1-(1-(1-(2-hydroxypropionyl)piperidin-4-yl)azetidin-3-yl)-1H-pyrazol-4-yl)-2-picolinamide] | 1.3 nM | 48 nM
5 | O=C(Nc1cn(C2CN(C3CCN(C(=O)CO)CC3)C2)nc1C(F)F)c1cccc(-c2cnn(CC(F)(F)F)c2)n1 [Example 4, N-(3-(difluoromethyl)-1-(1-(1-(2-hydroxyacetyl)piperidin-4-yl)azetidin-3-yl)-1H-pyrazol-4-yl)-6-(1-(2,2,2-trifluoroethyl)-1H-pyrazol-4-yl)-2-picolinamide] | 0.68 nM | 33 nM
6 | CC(=O)N1CCC(N2CC(n3cc(NC(=O)c4cccc(-c5cc[nH]n5)n4)c(C(F)F)n3)C2)CC1 [Example 24, N-(1-(1-(1-acetylpiperidin-4-yl)azetidin-3-yl)-3-(difluoromethyl)-1H-pyrazol-4-yl)-6-(1H-pyrazole-3-yl)-2-picolinamide] | 0.59 nM | 20 nM
7 | C[C@@H](O)C(=O)N1CCC(N2CC(n3cc(NC(=O)c4cccc(-c5cnn(CC(F)(F)F)c5)n4)c(C(F)F)n3)C2)CC1 [Example 31, (R)—N-(3-(difluoromethyl)-1-(1-(1-(2-hydroxypropionyl)piperidin-4-yl)azetidin-3-yl)-1H-pyrazol-4-yl)-6-(1-(2,2,2-trifluoroethyl)-1H-pyrazol-4-yl)-2-picolinamide] | 0.79 nM | 42 nM
8 | CC(=O)N1CCC(N2CC(n3cc(NC(=O)c4cccc(-c5cnn(C(C)(C)C#N)c5)n4)c(C(F)F)n3)C2)CC1 [Example 12, N-(1-(1-(1-acetylpiperidin-4-yl)azetidin-3-yl)-3-(difluoromethyl)-1H-pyrazol-4-yl)-6-(1-(2-cyanopropan-2-yl)-1H-pyrazol-4-yl)-2-picolinamide] | 0.91 nM | 43 nM
9 | O=C(Nc1cn(C2CN(C3CCN(C(=O)CO)CC3)C2)nc1C(F)F)c1cccc(-c2cnn(CC(F)F)c2)n1 [Example 2, 6-(1-(2,2-Difluoroethyl)-1H-pyrazol-4-yl)-N-(3-(difluoromethyl)-1-(1-(1-(2-hydroxyacetyl)piperidin-4-yl)azetidin-3-yl)-1H-pyrazol-4-yl)-2-picolinamide] | 0.99 nM | 27 nM
10 | CC(C)(O)C(=O)N1CCC(N2CC(n3cc(NC(=O)c4cccc(-c5cnn(CC(F)F)c5)n4)c(C(F)F)n3)C2)CC1 [Example 36, 6-(1-(2,2-Difluoroethyl)-1H-pyrazol-4-yl)-N-(3-(difluoromethyl)-1-(1-(1-(2-hydroxy-2-methylpropionyl)piperidin-4-yl)azetidin-3-yl)-1H-pyrazol-4-yl)-2-picolinamide] | 0.96 nM | 50 nM
11 | CC(C)(O)C(=O)N1CCC(N2CC(n3cc(NC(=O)c4cccc(-c5cnn(CC(F)(F)F)c5)n4)c(C(F)F)n3)C2)CC1 [Example 32, N-(3-(difluoromethyl)-1-(1-(1-(2-hydroxy-2-methylpropionyl)piperidin-4-yl)azetidin-3-yl)-1H-pyrazol-4-yl)-6-(1-(2,2,2-trifluoroethyl)-1H-pyrazol-4-yl)-2-picolinamide] | 0.97 nM | 52 nM
12 | CN(C)C(=O)N1CCC(N2CC(n3cc(NC(=O)c4cccc(-c5cc[nH]n5)n4)c(C(F)F)n3)C2)CC1 [Example 28, N-(3-(difluoromethyl)-1-(1-(1-(dimethylcarbamoyl)piperidin-4-yl)azetidin-3-yl)-1H-pyrazol-4-yl)-6-(1H-pyrazol-3-yl)-2-picolinamide] | 0.68 nM | 
13 | C[C@H](O)C(=O)N1CCC(N2CC(n3cc(NC(=O)c4cccc(-c5cnn(CC(F)F)c5)n4)c(C(F)F)n3)C2)CC1 [Example 34, (S)-6-(1-(2,2-difluoroethyl)-1H-pyrazol-4-yl)-N-(3-(difluoromethyl)-1-(1-(1-(2-hydroxypropionyl)piperidin-4-yl)azetidin-3-yl)-1H-pyrazol-4-yl)-2-picolinamide] | 1 nM | 46 nM
14 | CC(=O)N1CCC(N2CC(n3cc(NC(=O)c4cccc(-c5cnn(C)c5)n4)c(C(F)F)n3)C2)CC1 [Example 6, N-(1-(1-(1-acetylpiperidin-4-yl)azetidin-3-yl)-3-(difluoromethyl)-1H-pyrazol-4-yl)-6-(1-methyl-1H-pyrazol-4-yl)-2-picolinamide] | 4.2 nM | 
15 | CS(=O)(=O)N1CCC(N2CC(n3cc(NC(=O)c4cccc(-c5cnn(CC(F)(F)F)c5)n4)c(C(F)F)n3)C2)CC1 [Example 33, N-(3-(difluoromethyl)-1-(1-(1-(methylsulfonyl)piperidin-4-yl)azetidin-3-yl)-1H-pyrazol-4-yl)-6-(1-(2,2,2-trifluoroethyl)-1H-pyrazol-4-yl)-2-picolinamide] | 4.9 nM | 
16 | CCC(=O)N1CCC(N2CC(n3cc(NC(=O)c4cccc(-c5cc[nH]n5)n4)c(C(F)F)n3)C2)CC1 [Example 26, N-(3-(difluoromethyl)-1-(1-(1-propionylpiperidin-4-yl)azetidin-3-yl)-1H-pyrazol-4-yl)-6-(1H-pyrazol-3-yl)-2-picolinamide] | 0.54 nM | 
17 | CN(C)C(=O)N1CCC(N2CC(n3cc(NC(=O)c4cccc(-c5cnn(CC(F)F)c5)n4)c(C(F)F)n3)C2)CC1 [Example 38, 6-(1-(2,2-Difluoroethyl)-1H-pyrazol-4-yl)-N-(3-(difluoromethyl)-1-(1-(1-(dimethylcarbamoyl)piperidin-4-yl)azetidin-3-yl)-1H-pyrazol-4-yl)-2-picolinamide] | 1.5 nM | 
18 | CC(=O)N1CCC(N2CC(n3cc(NC(=O)c4cccc(-c5cnn(CC(C)(C)O)c5)n4)c(C(F)F)n3)C2)CC1 [Example 15, N-(1-(1-(1-acetylpiperidin-4-yl)azetidin-3-yl)-3-(difluoromethyl)-1H-pyrazol-4-yl)-6-(1-(2-hydroxy-2-methylpropyl)-1H-pyrazol-4-yl)-2-picolinamide] | 3.9 nM | 
19 | COC(=O)N1CCC(N2CC(n3cc(NC(=O)c4cccc(-c5cnn(C(C)(C)CN)c5)n4)c(C(F)F)n3)C2)CC1 [Example 18, Methyl 4-(3-(4-(6-(1-(1-amino-2-methylpropan-2-yl)-1H-pyrazol-4-yl)-2-picolinamide)-3-(difluoromethyl)-1H-pyrazol-1-yl)azetidin-1-yl)piperidine-1-carboxylate] | 0.67 nM | 

From patent US11958831B2, “Pyrazole compounds, pharmaceutical compositions thereof and use thereof” (ARTIVILA (SHENZHEN) INNOVATION CENTER, LTD., priority 2018, dated 2024)
